Experimental data: PMC9602571, “Discovery of a Dual SENP1 and SENP2 Inhibitor” (International Journal of Molecular Sciences, 2022)

Columns and labels:
SENP2 = biological target: T1, SENP2 (Homo sapiens, UniProt Q9HC62); experiment: Fluorogenic SENP2 assay, SUMO1-AMC substrate; assay type: biochemical; settings: n = 2
T1 construct: Human recombinant catalytic domain expressed in E. coli; purchased Enzo BML-UW9765; host or cells: E. coli
T1 sequence (Q9HC62 396-560 limits assumed): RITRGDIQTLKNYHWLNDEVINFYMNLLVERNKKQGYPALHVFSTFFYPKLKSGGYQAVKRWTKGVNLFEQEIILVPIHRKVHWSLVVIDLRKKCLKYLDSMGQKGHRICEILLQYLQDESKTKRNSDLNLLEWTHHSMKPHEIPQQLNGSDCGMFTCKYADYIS
Description: The IC50 measurements were conducted at Reaction Biology Corporation, Malvern, PA, USA, with two replications using 10 concentrations starting at 200 μM with a three-fold dilution. Curve fits were performed where the enzyme activities at the highest concentration of compounds were less than 65%. UCH-L3 I was used as a control inhibitor. To SENP2 (Enzo Cat# BML-UW9765, Human recombinant catalytic domain expressed in E. coli.) in reaction buffer (50 mM HEPES, 150 mM NaCl, 0.5 mM EDTA, 1 mM DTT, pH 7.5, 0.01% CHAPS) was delivered the compound stock solution by acoustic technology (Echo550; nanoliter range) and subsequently incubated for 15 min at ambient temperature. The substrate SUMO1-AMC (R&D Systems Cat# UL-551-050, Lot# 07613314A, Fluorescence labeled full-length SUMO1 protein) was delivered to the well-plate to initiate the reaction. The enzyme activities were monitored (Ex/Em = 355/460 nm) as a time-course measurement of the increase in fluorescence signal from SUMO1-AMC for 90 min at ambient temperature. The data were analyzed by taking the slope (signal/time) of linear portion of measurement. The slope was calculated using Excel and the curve fits were performed using GraphPad Prism7 with a four-parameter least-squares fit. The final reaction conditions contained 0.015 nM SENP2 and 300 nM SUMO1/2 or 3-AMC.

UCHL1 = biological target: T2, UCHL1 (Homo sapiens, UniProt P09936); experiment: UCHL1 activity assay, Ubiquitin-AMC substrate; assay type: biochemical; settings: n = 2
T2 construct: purchased SignalChem U22-30H
T2 sequence (P09936 1-223): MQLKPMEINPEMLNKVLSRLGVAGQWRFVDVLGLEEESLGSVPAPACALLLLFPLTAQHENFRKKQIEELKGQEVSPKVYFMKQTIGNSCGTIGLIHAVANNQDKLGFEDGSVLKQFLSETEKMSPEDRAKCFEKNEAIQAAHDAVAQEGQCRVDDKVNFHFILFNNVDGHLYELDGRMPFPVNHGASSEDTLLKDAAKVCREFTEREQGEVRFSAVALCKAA
Description: (§1) IC50 measurements were conducted at Reaction Biology Corporation, Malvern, PA, USA, with two replications using 10 concentrations starting at 200 μM with three-fold dilution. Curve fits were performed where the enzyme activities at the highest concentration of compounds were less than 65%. UCHL1 II was used as a control inhibitor. The procedure was performed analogous to the fluorogenic SENP2 assay described in 3.3.2. using the UCHL1 enzyme (SignalChem Cat# U22-30H) and Ubiquitin-AMC substrate (Enzo Cat# BML-SE211-0025). The final reaction conditions contained 0.2 nM UCHL1 and 100 nM Ubiquitin-AMC.

Ataxin-3 = biological target: T3, Ataxin-3 (Homo sapiens, UniProt P54252); experiment: Ataxin-3 activity assay, Ubiquitin-AMC substrate; assay type: biochemical; settings: n = 2
T3 construct: purchased BPS 80399
Description: as §1, with “the Ataxin-3” for “the UCHL1”, “enzyme (BPS” for “enzyme (SignalChem”, “Cat# 80399)” for “Cat# U22-30H)”, “contained 500” for “contained 0.2”, “nM Ataxin-3” for “nM UCHL1”

SENP1 [1] = biological target: T4, SENP1 (Homo sapiens, UniProt Q9P0U3); experiment: Fluorogenic SENP1 assay, SUMO1-AMC substrate; assay type: biochemical; settings: SUMO1-AMC 300 nM, 0.02 nM SENP1; interval in parentheses; read-out: IC50 SENP1
T4 construct: Human recombinant, His6-SENP1 Catalytic Domain; His6 (N); purchased Boston Biochem (Bio-Techne AG) E-700
T4 sequence (Q9P0U3 450-613 limits assumed): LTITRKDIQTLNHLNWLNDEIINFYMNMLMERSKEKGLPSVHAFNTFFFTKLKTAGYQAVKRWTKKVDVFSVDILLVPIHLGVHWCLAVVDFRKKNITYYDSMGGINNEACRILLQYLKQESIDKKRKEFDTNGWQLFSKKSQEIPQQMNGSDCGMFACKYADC
Description: Human recombinant, His6-SENP1 Catalytic Domain (Boston Biochem Cat# E-700, Bio-Techne AG, Zug, Switzerland) was prepared in reaction buffer (50 mM HEPES, 150 mM NaCl, 0.5 mM EDTA, 1 mM DTT, pH 7.5, 0.01% CHAPS). To this solution, a 20 mM or 50 mM inhibitor stock solution in DMSO was added and the mixture was incubated for 15 min at ambient temperature. […] The slope was calculated using Excel and the curve fits were performed using GraphPad Prism7 with a four-parameter least-squares fit. The final reaction conditions contained 0.02 nM SENP1 and 300 nM SUMO1/2 or 3-AMC).

SENP1 [2] = biological target: T4, SENP1; experiment: Fluorogenic SENP1 assay, SUMO2-AMC substrate; assay type: biochemical; settings: n = 2
Description: (§2) Human recombinant, His6-SENP1 Catalytic Domain (Boston Biochem Cat# E-700, Bio-Techne AG, Zug, Switzerland) was prepared in reaction buffer (50 mM HEPES, 150 mM NaCl, 0.5 mM EDTA, 1 mM DTT, pH 7.5, 0.01% CHAPS). To this solution, a 20 mM or 50 mM inhibitor stock solution in DMSO was added and the mixture was incubated for 15 min at ambient temperature. […] The data were analyzed by taking the slope (signal/time) of the linear portion of measurement. The slope was calculated using Excel and the curve fits were performed using GraphPad Prism7 with a four-parameter least-squares fit. The final reaction conditions contained 0.02 nM SENP1 and 300 nM SUMO1/2 or 3-AMC).

SENP1 [3] = biological target: T4, SENP1; experiment: Fluorogenic SENP1 assay, SUMO3-AMC substrate; assay type: biochemical; settings: n = 2
Description: as §2

SENP1 [4] = biological target: T4, SENP1; experiment: Photo crosslinking experiments with SENP1; assay type: binding; settings: probe 200 µM, SENP1 10 µM, UV 30 min
Description: A buffer exchange of the commercially available 6 × His-SENP1 Protein (Boston Biochem Cat# E-700) to a 50 mM HEPES, 150 mM NaCl; 0.5 mM EDTA, 1 mM DTT, pH 7.5 was performed. A total of 200 μM of the photo affinity probe 56 with or without competitor molecule 11 (400 μM) was incubated in 10 uM SENP1 for 30 min at 0 °C. Subsequently, the mixtures were irradiated in a Proma UV exposure unit equipped with four 8 Watt lamps (Hitachi FL8BL-8, ~350 nm) for 30 min at 0 °C. Then, 50 µL of the crosslinked proteins were mixed with freshly prepared click mix solution (50 μL; 1 mM CuSO4, 1 mM TCEP, 100 uM THPTA from a 5 mM DMSO stock, dissolved in Milli-Q Water) and a 10 mM stock solution of azide fluor 545 (1 μL) and incubated at 0 °C for 14 h. […] Protein samples for SDS-PAGE were first prepared in 1 × Laemmli sample buffer (diluted from 4 × Laemmli sample buffer (ROTI®Load), and subsequently denatured at 100 °C for 15 min. After SDS-PAGE gel electrophoresis separation, the fluorescence was visualized (Ex. 520 nm, Em. 575 nm) on the SDS PAGE gel using ImageQuant^TM 4000 LAS (GE Healthcare, Chicago, IL, USA). Secondly, the gels were stained with Bio-Safe Coomassie Brilliant Blue G-250 (BioRad) for 60 min. De-staining was performed with 40% (v/v) methanol, 10% (v/v) glacial acetic acid, 50% (v/v) Milli-Q water until protein bands became visible.

T3 sequence (P54252 whole entry): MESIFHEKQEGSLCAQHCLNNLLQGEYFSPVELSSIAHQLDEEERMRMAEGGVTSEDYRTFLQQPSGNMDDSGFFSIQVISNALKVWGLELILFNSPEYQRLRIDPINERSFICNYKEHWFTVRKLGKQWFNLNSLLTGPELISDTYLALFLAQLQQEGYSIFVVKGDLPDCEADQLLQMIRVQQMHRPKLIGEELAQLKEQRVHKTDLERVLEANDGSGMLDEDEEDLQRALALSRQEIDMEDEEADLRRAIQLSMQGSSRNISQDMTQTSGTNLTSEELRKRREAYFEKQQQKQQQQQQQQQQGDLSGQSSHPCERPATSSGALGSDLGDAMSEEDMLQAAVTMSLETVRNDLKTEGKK

| IC50 (SENP2) [µM] | IC50 (UCHL1) [µM] | IC50 (SENP1 [1]) [µM] | melting point | IC50 (SENP1 [2]) [µM] | IC50 (SENP1 [3]) [µM] | covalent labelling of SENP1 by photo probe (TAMRA-azide fluorescence) (SENP1 [4]) | SMILES | IC50 (Ataxin-3) [µM] |
| --- | --- | --- | --- | --- | --- | --- | --- | --- |
| 9.3 | 64 |  |  |  |  |  | O=C(COC(=O)c1ccc(NC(=O)c2cccc(OCc3ccccc3)c2)cc1)c1ccc(Cl)cc1 [Compound 7, reference compound] | > 100 |
|  |  | > 100 | 230 °C (dec.) |  |  |  | O=C(O)Cc1cn(CC(=O)N2c3ccccc3NC(=O)C23CCCC3)nn1 [Compound 52, 2-[1-(2-Oxo-2-{3′-oxo-3′,4′-dihydro-1′H-spiro[cyclopentane-1,2′-quinoxalin]-1′-yl}ethyl)-1H-1,2,3-triazol-4-yl]acetic acid] |  |
|  |  | 50 | 197 to 202 °C (dec.) |  |  |  | O=C(Cn1nnnc1-c1ccccc1)N1c2ccccc2NC(=O)C12CCCC2 [Compound 54, 1′-[2-(5-Phenyl-1H-1,2,3,4-tetrazol-1-yl)acetyl]-3′,4′-dihydro-1′H-spiro[cyclopentane-1,2′-quinoxalin]-3′-one] |  |
| 5.8 | 132 | 10 | 231 to 233 °C | 18 | 23 |  | O=C(Cn1nnc(-c2ccccc2)n1)N1c2cscc2NC(=O)C12CCCC2 [Compound 55, 1′-[2-(5-Phenyl-2H-1,2,3,4-tetrazol-2-yl)acetyl]-3′,4′-dihydro-1′H-spiro[cyclopentane-1,2′-thieno [3,4-b]pyrazin]-3′-one] | > 100 |
|  |  | 24 |  |  |  | fluorescent band was visible | C#CCCC1(CCC(=O)N2c3ccccc3NC(=O)C23CCCC3)N=N1 [Compound 56, 1′-{3-[3-(But-3-yn-1-yl)-3H-diazirin-3-yl]propanoyl}-3′,4′-dihydro-1′H-spiro[cyclopentane-1,2′-quinoxalin]-3′-one] |  |
|  |  | 6.6 | 67 to 70 °C |  |  |  | CCCCCCCC(=O)N1c2ccccc2NC(=O)C12CCCC2 [Compound 57, 1′-Octanoyl-3′,4′-dihydro-1′H-spiro[cyclopentane-1,2′-quinoxalin]-3′-one] |  |
